Some test systems named below: A549; ACHN; DU-145; HCC 2998; HL-60; M14; MDA-MB-231; MDA-MB-435; NCI-H522; OVCAR-4; RPMI-8226; SK-MEL-28; SN12C; SNB-19; U-251; UACC-257; CAKI-1; LOX IMVI; TK-10.
Common to all, as to test: NCI-60 cell line screen, 48 h

Experimental findings from ChEMBL document CHEMBL1201862, “PubChem BioAssay data set” (2004) are described below.

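Cells were grown in 96-well plates and exposed to each compound for 48 hours at five concentrations; endpoints were interpolated linearly between bracketing concentrations, or set to the highest concentration if not reached. GI50: concentration for 50% inhibition of growth.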 Calls of active or inactive are those of the source. Cut-off read from the data, not from the text of the source: active = GI50 up to about 1.1 µM and inactive = higher.

On to `O=c1cc(-c2ccccc2)[nH]c2cccc(S)c12`, for which the GI50 in the test on A549 was 0.44 µM (active); in the test with ACHN, 0.804 µM (active); with DU-145, 0.393 µM (active); in the test on HCC 2998 it was 0.344 µM (active); in the test on HL-60, 0.201 µM (active); in the test with M14, 0.857 µM (active). For the same compound, the GI50 in the test with MDA-MB-231 was 0.455 µM (active); in the test on MDA-MB-435 it was 0.0299 µM (active); in the test on NCI-H522, 0.0782 µM (active); in the test on OVCAR-4 it was 4.8 µM (inactive); in the test with RPMI-8226, 0.424 µM (active); in the test with SK-MEL-28 it was 0.564 µM (active). Moreover, the GI50 in the test on SN12C was 0.462 µM (active); in the test with SNB-19 it was 0.375 µM (active); in the test with U-251 it was 0.182 µM (active); in the test on UACC-257, 0.0762 µM (active).

Regarding `COc1c(-c2nc3ccc(N4CCN(C)CC4)nc3[nH]2)cc(OC)c2c1nc(CCl)n2C`, the GI50 was 27.8 µM (inactive) in the test with A549; 13.7 µM (inactive) with ACHN; 16.6 µM (inactive) in the test on CAKI-1; 25.4 µM (inactive) in the test on DU-145; 15.7 µM (inactive) in the test with HCC 2998; 26.5 µM (inactive) with HL-60. Moreover, the GI50 was 10.8 µM (inactive) in the test on LOX IMVI; 16.9 µM (inactive) with M14; 19.2 µM (inactive) in the test on MDA-MB-231; 16.1 µM (inactive) with MDA-MB-435; 10.5 µM (inactive) with NCI-H522; 18.3 µM (inactive) in the test with OVCAR-4. For the same compound, the GI50 in the test with RPMI-8226 was 10.5 µM (inactive); in the test with SK-MEL-28 it was 26.9 µM (inactive); in the test with SN12C, 20.9 µM (inactive); in the test on SNB-19, 28.2 µM (inactive); with U-251, 12.2 µM (inactive); with UACC-257, 22.6 µM (inactive).

Consider `Clc1ccc(C2=CCN3CC=C(c4ccc(Cl)cc4)C23)cc1`, for which the GI50 was 14.2 µM (inactive) with A549; 13.7 µM (inactive) in the test on ACHN; 14.3 µM (inactive) in the test on CAKI-1; 14.7 µM (inactive) in the test on DU-145; 3.06 µM (inactive) in the test with HCC 2998; 4.78 µM (inactive) in the test on HL-60. Further, the GI50 in the test on LOX IMVI was 8.34 µM (inactive); with M14, 7.28 µM (inactive); in the test with MDA-MB-231, 12.4 µM (inactive); in the test on MDA-MB-435, 10.7 µM (inactive); in the test on NCI-H522, 10.2 µM (inactive); in the test with OVCAR-4 it was 8.26 µM (inactive). Further, the GI50 in the test on RPMI-8226 was 4.66 µM (inactive); in the test with SK-MEL-28 it was 13.9 µM (inactive); with SN12C, 8.71 µM (inactive); in the test with SNB-19 it was 14.5 µM (inactive); in the test with TK-10, 14 µM (inactive); in the test on U-251, 11 µM (inactive). For the same compound, the GI50 in the test on UACC-257 is 11.8 µM (inactive).

Regarding `O=C1/C(=N/N=C(c2ccccc2)c2ccccc2)c2ccccc2-c2ccccc21`, the GI50 in the test with A549 was > 100 µM (inactive); in the test on ACHN, 65.9 µM (inactive); in the test with CAKI-1, 37.6 µM (inactive); in the test on DU-145, > 100 µM (inactive); in the test with HL-60, > 100 µM (inactive); in the test with LOX IMVI, 56.4 µM (inactive). Also, the GI50 in the test on M14 is > 100 µM (inactive); in the test on MDA-MB-231 it was 31.6 µM (inactive); in the test with MDA-MB-435, > 100 µM (inactive); with NCI-H522, 54.8 µM (inactive); in the test with OVCAR-4, 77.3 µM (inactive); with SK-MEL-28 it was > 100 µM (inactive). The GI50 with SN12C is 71.1 µM (inactive); in the test on SNB-19 it was > 100 µM (inactive); in the test on TK-10 it was 75.5 µM (inactive); with U-251 it was 85.7 µM (inactive); in the test on UACC-257, > 100 µM (inactive).

With `CCOC(=O)C(Cc1cn(S(=O)(=O)c2ccc(C)cc2)cn1)P(=O)(OCC)OCC` (centres undefined), the GI50 with A549, in the test on ACHN, with CAKI-1, in the test on DU-145, with HCC 2998 and in the test on HL-60 was > 100 µM (inactive) throughout. The GI50 with LOX IMVI, in the test on M14, in the test with MDA-MB-231, in the test with MDA-MB-435, in the test with NCI-H522 and in the test on OVCAR-4 was > 100 µM (inactive) each time. Also, the GI50 in the test with RPMI-8226, in the test with SK-MEL-28, in the test with SN12C, in the test with SNB-19, in the test on TK-10 and in the test with U-251 was > 100 µM (inactive) throughout. The GI50 with UACC-257 is > 100 µM (inactive).

With `CCc1nnc(CC)n1NCCCC(=O)O`, the GI50 in the test on A549, in the test on ACHN, with DU-145, with HCC 2998, in the test on LOX IMVI and in the test with M14 was > 100 µM (inactive) throughout. The GI50 with MDA-MB-231, in the test on MDA-MB-435, in the test with NCI-H522, in the test with OVCAR-4, in the test with RPMI-8226 and with SK-MEL-28 was > 100 µM (inactive) in each case. The GI50 in the test with SN12C, with SNB-19, in the test with TK-10, in the test on U-251 and with UACC-257 was > 100 µM (inactive) throughout.

On to `O=c1c2ccccc2[nH]c(=S)n1-c1ccc(/N=N/c2cccc3cc(O)ccc23)cc1`, for which the GI50 was > 100 µM (inactive) in the test with A549; > 100 µM (inactive) with ACHN; > 100 µM (inactive) with CAKI-1; > 100 µM (inactive) with DU-145; > 100 µM (inactive) with HCC 2998; 22.3 µM (inactive) in the test on HL-60. The GI50 in the test on LOX IMVI was 43.5 µM (inactive); in the test with M14 it was > 100 µM (inactive); with MDA-MB-231 it was 48.4 µM (inactive); in the test on MDA-MB-435, > 100 µM (inactive); with NCI-H522, > 100 µM (inactive); in the test with OVCAR-4, > 100 µM (inactive). Further, the GI50 in the test with RPMI-8226 is > 100 µM (inactive); in the test on SK-MEL-28 it was > 100 µM (inactive); in the test on SN12C it was > 100 µM (inactive); with SNB-19, > 100 µM (inactive); with TK-10, > 100 µM (inactive); in the test on U-251, 54.6 µM (inactive). Moreover, the GI50 with UACC-257 was > 100 µM (inactive).

For `c1ccc(-c2ccc(-c3cc4ccccc4[nH]3)cc2)cc1`, the GI50 was > 100 µM (inactive) with A549; > 100 µM (inactive) in the test on ACHN; 61.7 µM (inactive) with CAKI-1; > 100 µM (inactive) in the test with DU-145; > 100 µM (inactive) in the test on HCC 2998; 27.8 µM (inactive) in the test with HL-60. Moreover, the GI50 in the test on LOX IMVI is > 100 µM (inactive); with M14, > 100 µM (inactive); with MDA-MB-231, > 100 µM (inactive); in the test with MDA-MB-435 it was > 100 µM (inactive); with NCI-H522, 60.3 µM (inactive); in the test with OVCAR-4, > 100 µM (inactive). Moreover, the GI50 with RPMI-8226, in the test on SK-MEL-28, in the test on SN12C, in the test with SNB-19, with TK-10 and in the test with U-251 was > 100 µM (inactive) throughout. Moreover, the GI50 with UACC-257 was > 100 µM (inactive).
